Data from patent US7989649B2, “Tumor imaging compounds” (Emory University, priority 2002, dated 2011).

Experiments:
[1] = Rodent biodistribution study in normal Fischer rats; type: in vivo, rat; conditions: for Tissue distribution of radioactivity, Blood / Tissue distribution of radioactivity, Bone / Tissue distribution of radioactivity, Brain / Tissue distribution of radioactivity, Heart / Tissue distribution of radioactivity, Kidney / Tissue distribution of radioactivity, Liver / Tissue distribution of radioactivity, Lung / Tissue distribution of radioactivity, Muscle / Tissue distribution of radioactivity, Pancreas / Tissue distribution of radioactivity, Spleen / Tissue distribution of radioactivity, Testis: normal Fischer rats
Description: Rodent biodistribution studies. The same procedures were used to evaluate [^18F]5a and [^18F]5b separately in rodents. The tissue distribution of radioactivity was determined in 16 normal male Fischer 344 rats (200-250 g) after intravenous injection of ˜85 μCi of [^18F]5a or [^18F]5b in 0.3 mL of sterile water. The animals were allowed food and water ad libitum before the experiment. Following anesthesia induced with an intramuscular injection of 0.1 mL/100 g of a 1:1 ketamine ([…]):xylazine (20 mg/mL) solution, the radiolabeled amino acid was injected into the rats via tail vein catheters. Groups of four rats were killed at 5 minutes, 30 minutes, 60 minutes and 120 minutes after injection of the dose. The animals were dissected, and selected tissues were weighed and counted along with dose standards in a Packard Cobra II Auto-Gamma Counter. The raw counts were decay corrected, and the counts were normalized as the percent of total injected dose per gram of tissue (% ID/g). A comparison of the uptake of activity in the tissues at each time point was analyzed using a 1-way ANOVA (GraphPad Prism software package).

9 L gliosarcoma tumor = experiment: Biodistribution in Fischer rats with intracranial 9 L gliosarcoma tumor; type: in vivo; conditions: tumor-bearing Fischer rats; for Tissue distribution of radioactivity, Brain: normal brain contralateral to tumor
Description: Tumor induction and animal preparation. All animal experiments were carried out under humane conditions and were approved by the Institutional Animal Use and Care Committee (IUCAC) at Emory University. Rat 9 L gliosarcoma cells were implanted into the brains of male Fischer rats as described previously [Shoup, T M et al. (1999), J. Nucl. Med. 40:331-338]. Briefly, anesthetized rats placed in a stereotactic head holder were injected with a suspension of 4×10^4 rat 9 L gliosarcoma cells (1×10^7 per mL) in a location 3 mm right of midline and 1 mm anterior to the bregma at a depth of 5 mm deep to the outer table. The injection was performed over the course of 2 minutes, and the needle was withdrawn over the course of 1 minute to minimize the backflow of tumor cells. The burr hole and scalp incision were closed, and the animals were returned to their original colony after recovering from the procedure. Intracranial tumors developed that produced weight loss, apathy and hunched posture in the tumor-bearing rats, and the animals were used at 17-19 days after implantation. Of the 30 animals implanted with tumor cells, 25 developed tumors visible to the naked eye upon dissection and were used in the study.
The tissue distribution of radioactivity was also determined in tumor-bearing Fischer 344 rats following intravenous injection of ˜35 μCi of [^18F]5a or [^18F]5b in 0.3 mL of sterile water. The procedure was similar to that already described for normal rats with the following modifications. The tail vein injections were performed in awake animals using a RTV-190 rodent restraint device (Braintree Scientific) to avoid mortality accompanying anesthesia in the presence of an intracranial mass. The animals were killed at 5 minutes, 60 minutes or 120 minutes post-injection. The same tissues were assayed as in normal rats with the addition of the tumor tissue, and the corresponding region of brain contralateral to the tumor was excised and used for comparison. The uptake in the tumor and contralateral brain at each time point was compared via a two-tailed t-test for paired observations (GraphPad Prism software package).

[2] = 5 min after injection, listed as [^18F]N-MeFAMP (5b)
[3] = 60 min after injection, listed as [^18F]N-MeFAMP (5b)
[4] = 120 min after injection, listed as [^18F]N-MeFAMP (5b)

Structure (SMILES): CNC(C)(CF)C(=O)O (racemic) [[^18F]5b, 3-fluoro-2-methyl-2-(methylamino)propanoic acid]
- Tissue distribution of radioactivity, Blood ([1]; 5 min after injection): 0.61 ± 0.02 percent dose per gram
- Tissue distribution of radioactivity, Bone ([1]; 5 min after injection): 0.34 ± 0.04 percent dose per gram
- Tissue distribution of radioactivity, Brain ([1]; 5 min after injection): 0.04 ± 0.005 percent dose per gram
- Tissue distribution of radioactivity, Heart ([1]; 5 min after injection): 0.22 ± 0.01 percent dose per gram
- Tissue distribution of radioactivity, Kidney ([1]; 5 min after injection): 8.12 percent dose per gram
- Tissue distribution of radioactivity, Liver ([1]; 5 min after injection): 0.79 ± 0.06 percent dose per gram
- Tissue distribution of radioactivity, Lung ([1]; 5 min after injection): 0.53 ± 0.03 percent dose per gram
- Tissue distribution of radioactivity, Muscle ([1]; 5 min after injection): 0.16 ± 0.008 percent dose per gram
- Tissue distribution of radioactivity, Pancreas ([1]; 5 min after injection): 2.73 percent dose per gram
- Tissue distribution of radioactivity, Spleen ([1]; 5 min after injection): 0.44 ± 0.06 percent dose per gram
- Tissue distribution of radioactivity, Testis ([1]; 5 min after injection): 0.17 ± 0.004 percent dose per gram
- Tissue distribution of radioactivity, Kidney [1, 2]: 8.12 ± 0.62 percent dose per gram
- Tissue distribution of radioactivity, Pancreas [1, 2]: 2.73 ± 0.28 percent dose per gram
- Tissue distribution of radioactivity, Blood ([1]; 30 min after injection): 0.30 ± 0.003 percent dose per gram
- Tissue distribution of radioactivity, Bone ([1]; 30 min after injection): 0.32 ± 0.04 percent dose per gram
- Tissue distribution of radioactivity, Brain ([1]; 30 min after injection): 0.04 ± 0.004 percent dose per gram
- Tissue distribution of radioactivity, Heart ([1]; 30 min after injection): 0.23 ± 0.03 percent dose per gram
- Tissue distribution of radioactivity, Kidney ([1]; 30 min after injection): 4.60 ± 0.70 percent dose per gram
- Tissue distribution of radioactivity, Liver ([1]; 30 min after injection): 0.72 ± 0.09 percent dose per gram
- Tissue distribution of radioactivity, Lung ([1]; 30 min after injection): 0.50 ± 0.07 percent dose per gram
- Tissue distribution of radioactivity, Muscle ([1]; 30 min after injection): 0.16 ± 0.003 percent dose per gram
- Tissue distribution of radioactivity, Pancreas ([1]; 30 min after injection): 3.00 ± 0.23 percent dose per gram
- Tissue distribution of radioactivity, Spleen ([1]; 30 min after injection): 0.75 ± 0.06 percent dose per gram
- Tissue distribution of radioactivity, Testis ([1]; 30 min after injection): 0.11 ± 0.005 percent dose per gram
- Tissue distribution of radioactivity, Blood ([1]; 60 min after injection): 0.18 ± 0.02 percent dose per gram
- Tissue distribution of radioactivity, Bone ([1]; 60 min after injection): 0.29 ± 0.04 percent dose per gram
- Tissue distribution of radioactivity, Brain ([1]; 60 min after injection): 0.03 ± 0.003 percent dose per gram
- Tissue distribution of radioactivity, Heart ([1]; 60 min after injection): 0.20 ± 0.02 percent dose per gram
- Tissue distribution of radioactivity, Kidney ([1]; 60 min after injection): 2.73 ± 0.35 percent dose per gram
- Tissue distribution of radioactivity, Liver ([1]; 60 min after injection): 0.78 ± 0.10 percent dose per gram
- Tissue distribution of radioactivity, Lung ([1]; 60 min after injection): 0.38 ± 0.07 percent dose per gram
- Tissue distribution of radioactivity, Muscle ([1]; 60 min after injection): 0.15 ± 0.007 percent dose per gram
- Tissue distribution of radioactivity, Pancreas ([1]; 60 min after injection): 3.24 ± 0.30 percent dose per gram
- Tissue distribution of radioactivity, Spleen ([1]; 60 min after injection): 0.68 ± 0.02 percent dose per gram
- Tissue distribution of radioactivity, Testis ([1]; 60 min after injection): 0.08 ± 0.005 percent dose per gram
- Tissue distribution of radioactivity, Blood ([1]; 120 min after injection): 0.10 ± 0.007 percent dose per gram
- Tissue distribution of radioactivity, Bone ([1]; 120 min after injection): 0.20 ± 0.02 percent dose per gram
- Tissue distribution of radioactivity, Brain ([1]; 120 min after injection): 0.03 ± 0.001 percent dose per gram
- Tissue distribution of radioactivity, Heart ([1]; 120 min after injection): 0.17 ± 0.02 percent dose per gram
- Tissue distribution of radioactivity, Kidney ([1]; 120 min after injection): 1.36 ± 0.27 percent dose per gram
- Tissue distribution of radioactivity, Liver ([1]; 120 min after injection): 0.58 ± 0.11 percent dose per gram
- Tissue distribution of radioactivity, Lung ([1]; 120 min after injection): 0.30 ± 0.08 percent dose per gram
- Tissue distribution of radioactivity, Muscle ([1]; 120 min after injection): 0.13 ± 0.007 percent dose per gram
- Tissue distribution of radioactivity, Pancreas ([1]; 120 min after injection): 2.88 ± 0.40 percent dose per gram
- Tissue distribution of radioactivity, Spleen ([1]; 120 min after injection): 0.47 ± 0.04 percent dose per gram
- Tissue distribution of radioactivity, Testis ([1]; 120 min after injection): 0.06 ± 0.005 percent dose per gram
- brain uptake of radioactivity ([1]; normal rats, all time points): approximately 0.04 % ID/g
- Tissue distribution of radioactivity, Blood (9 L gliosarcoma tumor; 5 min after injection): 0.69 ± 0.04 percent dose per gram
- Tissue distribution of radioactivity, Bone (9 L gliosarcoma tumor; 5 min after injection): 0.33 ± 0.04 percent dose per gram
- Tissue distribution of radioactivity, Heart (9 L gliosarcoma tumor; 5 min after injection): 0.34 ± 0.02 percent dose per gram
- Tissue distribution of radioactivity, Kidney (9 L gliosarcoma tumor; 5 min after injection): 9.33 ± 0.36 percent dose per gram
- Tissue distribution of radioactivity, Liver (9 L gliosarcoma tumor; 5 min after injection): 0.94 ± 0.12 percent dose per gram
- Tissue distribution of radioactivity, Lung (9 L gliosarcoma tumor; 5 min after injection): 0.61 ± 0.04 percent dose per gram
- Tissue distribution of radioactivity, Muscle (9 L gliosarcoma tumor; 5 min after injection): 0.22 ± 0.011 percent dose per gram
- Tissue distribution of radioactivity, Pancreas (9 L gliosarcoma tumor; 5 min after injection): 2.95 ± 0.58 percent dose per gram
- Tissue distribution of radioactivity, Spleen (9 L gliosarcoma tumor; 5 min after injection): 0.47 ± 0.04 percent dose per gram
- Tissue distribution of radioactivity, Testis (9 L gliosarcoma tumor; 5 min after injection): 0.19 ± 0.008 percent dose per gram
- Tissue distribution of radioactivity, Tumor (9 L gliosarcoma tumor; 5 min after injection): 1.29 percent dose per gram
- Tissue distribution of radioactivity, Tumor (9 L gliosarcoma tumor; [2]): 1.29 ± 0.28 percent dose per gram
- Tissue distribution of radioactivity, Blood (9 L gliosarcoma tumor; 60 min after injection): 0.17 ± 0.02 percent dose per gram
- Tissue distribution of radioactivity, Bone (9 L gliosarcoma tumor; 60 min after injection): 0.23 ± 0.04 percent dose per gram
- Tissue distribution of radioactivity, Heart (9 L gliosarcoma tumor; 60 min after injection): 0.25 ± 0.03 percent dose per gram
- Tissue distribution of radioactivity, Kidney (9 L gliosarcoma tumor; 60 min after injection): 2.79 ± 0.31 percent dose per gram
- Tissue distribution of radioactivity, Liver (9 L gliosarcoma tumor; 60 min after injection): 0.85 ± 0.17 percent dose per gram
- Tissue distribution of radioactivity, Lung (9 L gliosarcoma tumor; 60 min after injection): 0.26 ± 0.03 percent dose per gram
- Tissue distribution of radioactivity, Muscle (9 L gliosarcoma tumor; 60 min after injection): 0.19 ± 0.02 percent dose per gram
- Tissue distribution of radioactivity, Pancreas (9 L gliosarcoma tumor; 60 min after injection): 2.42 ± 0.27 percent dose per gram
- Tissue distribution of radioactivity, Spleen (9 L gliosarcoma tumor; 60 min after injection): 0.45 ± 0.06 percent dose per gram
- Tissue distribution of radioactivity, Testis (9 L gliosarcoma tumor; 60 min after injection): 0.08 ± 0.008 percent dose per gram
- Tissue distribution of radioactivity, Tumor (9 L gliosarcoma tumor; 60 min after injection): 2.28 percent dose per gram
- Tissue distribution of radioactivity, Tumor (9 L gliosarcoma tumor; [3]): 2.28 ± 0.16 percent dose per gram
- Tissue distribution of radioactivity, Blood (9 L gliosarcoma tumor; 120 min after injection): 0.10 ± 0.007 percent dose per gram
- Tissue distribution of radioactivity, Bone (9 L gliosarcoma tumor; 120 min after injection): 0.19 ± 0.02 percent dose per gram
- Tissue distribution of radioactivity, Heart (9 L gliosarcoma tumor; 120 min after injection): 0.19 ± 0.02 percent dose per gram
- Tissue distribution of radioactivity, Kidney (9 L gliosarcoma tumor; 120 min after injection): 1.59 ± 0.19 percent dose per gram
- Tissue distribution of radioactivity, Liver (9 L gliosarcoma tumor; 120 min after injection): 0.41 ± 0.06 percent dose per gram
- Tissue distribution of radioactivity, Lung (9 L gliosarcoma tumor; 120 min after injection): 0.19 ± 0.011 percent dose per gram
- Tissue distribution of radioactivity, Muscle (9 L gliosarcoma tumor; 120 min after injection): 0.16 ± 0.012 percent dose per gram
- Tissue distribution of radioactivity, Pancreas (9 L gliosarcoma tumor; 120 min after injection): 1.74 ± 0.24 percent dose per gram
- Tissue distribution of radioactivity, Spleen (9 L gliosarcoma tumor; 120 min after injection): 0.40 ± 0.02 percent dose per gram
- Tissue distribution of radioactivity, Testis (9 L gliosarcoma tumor; 120 min after injection): 0.08 ± 0.005 percent dose per gram
- Tissue distribution of radioactivity, Tumor (9 L gliosarcoma tumor; 120 min after injection): 1.94 percent dose per gram
- Tissue distribution of radioactivity, Tumor (9 L gliosarcoma tumor; [4]): 1.94 ± 0.12 percent dose per gram
- Tissue distribution of radioactivity, Brain (9 L gliosarcoma tumor; 5 min after injection): 0.032 ± 0.002 percent dose per gram
- Tissue distribution of radioactivity, Brain (9 L gliosarcoma tumor; 60 min after injection): 0.022 percent dose per gram
- Tissue distribution of radioactivity, Brain (9 L gliosarcoma tumor; [3]): 0.022 ± 0.006 percent dose per gram
- Tissue distribution of radioactivity, Brain (9 L gliosarcoma tumor; 120 min after injection): 0.020 percent dose per gram
- Tissue distribution of radioactivity, Brain (9 L gliosarcoma tumor; [4]): 0.020 ± 0.005 percent dose per gram
